“And” between values parts separate entries of the source, which are not always exact repeats. Equal entries are not always repeated.
Experiments:
[1] = target: T1, human α5β1-integrin (Homo sapiens, UniProt P05556+P08648); assay: ELISA-type solid-phase binding assay: soluble α5β1 competing for immobilized fibronectin; conditions: competitive ELISA-type assay, referenced to internal standard cilengitide (L2)
T1 construct: purchased R&D 3230-A5-050
Description: Prior to the biological evaluation of the ligands, their specificity and subtype-selective affinity was analyzed by an ELISA (enzyme-linked immune sorbent assay)-type solid-phase ligand binding assay[59] by measuring the competitive binding of soluble purified integrins in the presence of the respective ligands to plate-immobilized purified ECM proteins, as described in Experimental Section: vitronectin (for αvβ3-directed ligands), fibronectin (for α5β1-directed ligands), or the latency-associated peptide (LAP) of transforming growth factor-β (TGF-β) (for αvβ6-directed ligands). Then, we determined whether Cy5.5 conjugation of ligands led to altered ligand binding affinities and integrin subtype selectivity compared to the unlabeled compounds. In the following, we describe in detail the alterations detected.
(3) 2.0 μg/mL mouse-anti-human CD51/61 (BD Biosciences, Franklin Lakes, New Jersey, USA; #555504). (4) 2.0 μg/mL anti-mouse IgG-POD (Sigma-Aldrich, #A9044-2ML). Integrin αvβ6: (1) 0.4 μg/mL LAP (TGF-β) (R&D, #246-LP-025), (2) 0.5 μg/mL human αvβ6 (R&D, #3817-AV-050), (3) 1:500 dilution mouse-anti-human αv (MAB1978) (Merck Millipore, #MAB1978), (4) 2.0 μg/mL anti-mouse IgG-POD (Sigma-Aldrich, #A9044-2ML). Integrin α5β1: (1) 0.5 μg/mL human fibronectin (Sigma-Aldrich, #F0895-1MG), (2) 2.0 μg/mL human α5β1 (R&D, 3230-A5-050), (3) 1.0 μg/mL mouse-anti-human CD49e (BD Biosciences, #555651), (4) 2.0 μg/mL anti-mouse IgG-POD (Sigma-Aldrich, #A9044-2 ML). For Western blot analysis, the following antibodies were used: (p-)p44/42^(erk-1/2) (1) 1:300 dilution of rabbit-anti-human p44/42^(erk-1/2) antibody (Cell Signaling Technology, Frankfurt, Germany, #9102) in 3% (w/v) bovine serum albumin (BSA)/TBS-T, (2) 1:5,000 dilution goat-anti-rabbit horseradish-conjugated secondary antibody in 1% (w/v) BSA/TBS-T. Phospho-p44/42^(erk-1/2): (1) 1:200 dilution rabbit-anti-human p44/42^(erk-1/2) (Thr202/Tyr204) antibody (Cell Signaling Technology, #9101) in 3% (w/v) BSA/TBS-T, (2) 1:5,000 dilution goat-anti-rabbit horseradish-conjugated secondary antibody in 1% (w/v) BSA/TBS-T. FAK: (1) 1:300 dilution mouse-anti-human FAK antibody (Cell Signaling Technology, #9102) in 3% (w/v) BSA/TBS-T, (2) 1:5,000 dilution goat-anti-mouse horseradish-conjugated secondary antibody in 1% (w/v) BSA/TBS-T. Phospho-FAK: (1) 1:300 dilution mouse-anti-human p-FAK antibody (Cell Signaling Technology) in 3% (w/v) BSA/TBS-T, (2) 1:5,000 dilution goat-antimouse horseradish-conjugated secondary antibody in 1% (w/v) BSA/TBS-T. Differences in blotting efficiency and protein loading were normalized by using a primary antibody against glyceraldehyde-3-phosphate dehydrogenase (GAPDH, 1:10,000 dilution in 1% (w/v) BSA/TBS-T, at RT for 45 min (Millipore, Schwalbach, Germany) and a secondary horseradish-conjugated goat-anti-mouse antibody (1:10,000 dilution in 1% (w/v) BSA/TBS-T, 40 min at RT).
The integrin binding assay was done to assess the specificity and subtype-selective affinity of L1–L5 and their respective Cy5.5-conjugated ligands by using isolated and purified integrins in cell-free ligand binding assays, as previously published.[59]Table 2 summarizes the used ECM ligands, integrins, and antibodies. In brief, flat-bottom 96-well plates were coated overnight at 4 °C with the natural ECM integrin ligands, vitronectin (for αvβ3-directed ligands), fibronectin (for α5β1-directed ligands), or LAP of TGF-β1 (for αvβ6-directed ligands) (100 μL/well in buffer containing 15 mM Na2CO3, 35 mM NaHCO3, pH 9.6). Subsequently, each well was washed in PBS, 0.01% (v/v) Tween 20, 137 mM NaCl, 2.7 mM KCl, 10 mM Na2HPO4, 2 mM KH2PO4, pH 7.4 (PBS-T), and blocked for unspecific binding events for 1 h at RT in 20 mM Tris–HCl, pH 7.5, 150 mM NaCl, 1 mM CaCl2, 1 mM MgCl2, 1 mM MnCl2, and 1% (w/v) BSA. Meanwhile, dilution series of the different integrin ligands and the internal standards were prepared, ranging from 20 μM to 256 pM in 1:5 dilution steps. […]

[2] = target: T2, human αvβ6-integrin (Homo sapiens, UniProt P06756+P18564); assay: ELISA-type solid-phase binding assay: soluble αvβ6 competing for immobilized LAP (TGF-β); conditions: competitive ELISA-type assay, referenced to internal standard RTDLDSLRT
T2 construct: purchased R&D 3817-AV-050

[3] = test system: HN cells; assay: Cell adhesion in the presence of ligand, HN cells; type: cell-based; conditions: both concentrations (1 nM, 1 μM), 48 h
Description: Figure 10 (A) Effect of integrin ligands on cancer cell migration. […] Microscopical measurements of wound gaps were taken directly after setting the wound scratch and then after 9, 24, 48, and 72 h, respectively. Wound scratch assays were repeated at least three times. The extent of wound gap closure [%]/cell coverage was calculated by a python script utilizing Canny’s Edge Detection algorithm as described under Materials and summarized in the corresponding histograms (see also Scheme S5 in the Supporting Information). (B) Adhesion of M21, OV-MZ-6, and HN cells in the presence of the respective integrin targeting ligand at low (1 nM) and high (1 μM) concentrations. […] Depicted are typical microscopical images of the respective cell monolayers.

**Q.** `C#CCCC(=O)NCCCOc1ccc(C(=O)N[C@H](CC(=O)O)Cc2ccc(OCCCNc3cc(OC)ccn3)cc2)cc1` [L1, (S)-4-(4-(3-((4-Methoxypyridin-2-yl)amino)propoxy)phenyl)-3-(4-(3-(pent-4-ynamido)propoxy)benzamido)butanoic Acid] was tested. Which IC50 [1] did it give?
**A.** 73.4 ± 16.6 nM

**Q.** What about the IC50 [2] of the same molecule?
**A.** 152 ± 60.8 nM

**Q.** Which IC50 [1] does the source give for `C#CCCC(=O)NCCCOc1cc(C)c(C(=O)N[C@@H](CNC(=O)CNC(=O)c2cccc(NC(=N)N)c2)C(=O)O)c(C)c1` [L5, (S)-2-(2,6-Dimethyl-4-(3-(pent-4-ynamido)propoxy)benzamido)-3-(2-(3-guanidinobenzamido)acetamido)propanoic Acid] here?
**A.** 1.2 nM and 1.24 nM

**Q.** What about the IC50 [2] of the same molecule?
**A.** > 1000 nM

**Q.** With c(FRGDLAFp(NMe)K) [L3] as the molecule, how does the Adhesive phenotype [3] read?
**A.** not changed

— PMC11874007, “Switching Roles—Exploring Concentration-Dependent Agonistic versus Antagonistic Behavior of Integrin Ligands” (Journal of Medicinal Chemistry, 2025)
